Results taken from patent US20090036461A1, “Use of Azabicyclo Hexane Derivatives” (priority 2005, published 2009).

Tests used:
D3 = D3 (Homo sapiens, UniProt P35462); assay: functional pKi (fpKi) at D3, comparison of separated enantiomers; format: biochemical; conditions: difference in fpKi between the two separated enantiomers of the same example
male rats [1] = assay: sexual incentive motivation test in male rats after acute administration; format: in vivo, Wistar rats; conditions: -1 hour; for Time sexual incentive zone (s) / Time social incentive zone / n. of visits social incentive zone / n. of visits to sex. Incentive zone: male rats, n = 9, mean ± s.e.m.
Procedure: (§1) Background: In order to evaluate the effect on natural rewards and to potentially differentiate this approach compared with clinically active gold standards, the effect of the title compound (0.03, 0.3 and 3 mg/kg i.p.; −1 hour, prepared in an analogous way with Example 40) on sexual desire and consummatory performance was evaluated in the rat after acute administration. The effect of the title compound was assessed according to a Latin squared experimental design in male (about 300 g upon arrival) and female (250 g upon arrival) Wistar rats.
(§2) Method—Male rats, sexually experienced were treated with the title compound and submitted 1-hr later to a sexual incentive motivation test (10 minutes) in which male rats were singly exposed to receptive female and active male incentives (Agmo A., Journal of Comparative Psychology. 117(1), March 2003, 3-14). The following parameters were scored: (1) time spent in the incentive zones (close to the incentive cage); (2) number of visits to the zones, and (3) preference score (time spent in the sexual incentive zone/(time in the sexual incentive zone+time in the social incentive zone)). Immediately after the incentive motivation test each subject was transferred to an observation cage in the presence of a receptive female and its copulatory behaviour was then recorded until the end of the 1st post-ejaculatory interval. In the observation cage, the following behavioural parameters were recorded: (1) mount latency (time from the introduction of the female until the first mount with pelvic thrusting); (2) intromission latency (time from the introduction of the female until the first mount with vaginal penetration); (3) ejaculation latency (time from the 1st intromission until ejaculation); (4) post-ejaculatory interval (time from ejaculation until the following intromission); (5) number of mounts, and (6) number of intromission.
(§3) Results—Data are expressed as mean ±s.e.m.

male rats [2] = assay: copulatory (consummatory) behaviour of male rats with a receptive female; format: in vivo, Wistar rats; conditions: -1 hour; for Ejaculation latency / Intromission latency / Mount latency / Post ejaculatory interval / n. of intromissions / n. of mounts: male rats, n = 9, mean ± s.e.m.
Procedure: as §1, §2, §3

[3] = 0.03, 0.3 and 3 mg/kg i.p., result in words

Sequence of D3 (P35462 whole entry): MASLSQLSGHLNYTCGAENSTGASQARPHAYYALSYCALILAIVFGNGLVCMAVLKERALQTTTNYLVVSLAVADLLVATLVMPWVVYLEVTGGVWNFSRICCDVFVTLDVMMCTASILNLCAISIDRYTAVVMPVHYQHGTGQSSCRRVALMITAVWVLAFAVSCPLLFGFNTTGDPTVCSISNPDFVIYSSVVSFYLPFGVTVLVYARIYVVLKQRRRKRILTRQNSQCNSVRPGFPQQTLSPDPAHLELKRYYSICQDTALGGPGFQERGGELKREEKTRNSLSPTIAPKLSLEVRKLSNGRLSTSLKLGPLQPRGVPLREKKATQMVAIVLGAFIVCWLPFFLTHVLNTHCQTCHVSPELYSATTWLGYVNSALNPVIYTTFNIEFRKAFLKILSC

## Cc1ncoc1-c1nnc(SCCCN2C[C@@H]3C[C@]3(c3ccc(C(F)(F)F)cc3F)C2)n1C.Cl (single isomer, unassigned) [Example 40]
D3
  fpKi (D3) higher than the other enantiomer: > 1 log-unit
Male rats [1]; [3]
  effect on sexual desire of male rats exposed to sexual and social stimuli: did not affect sexual desire
Male rats [1]; 0.03 mg/kg i.p.
  Time sexual incentive zone (s): 367.57 ± 23.53++ s
  Time social incentive zone: 73.69 ± 12.48 s
  n. of visits social incentive zone: 15.33 ± 1.60
  n. of visits to sex. Incentive zone: 23.44 ± 1.95++
Male rats [1]; 0.3 mg/kg i.p.
  Time sexual incentive zone (s): 335.12 ± 32.47++ s
  Time social incentive zone: 86.84 ± 13.38 s
  n. of visits social incentive zone: 17.44 ± 2.49
  n. of visits to sex. Incentive zone: 23.89 ± 2.06++
Male rats [1]; 3 mg/kg i.p.
  Time sexual incentive zone (s): 355.91 ± 13.70++ s
  Time social incentive zone: 76.83 ± 10.05 s
  n. of visits social incentive zone: 14.00 ± 1.85
  n. of visits to sex. Incentive zone: 21.78 ± 1.72++
Male rats [2]; [3]
  effect on ejaculation patterns: significant increase in the number of mounts, ejaculation latency and post-ejaculatory interval
Male rats [2]; 0.03 mg/kg i.p.
  Ejaculation latency: 202.2 ± 19.6 s
  Intromission latency: 6.3 ± 0.8 s
  Mount latency: 4.6 ± 0.8 s
  Post ejaculatory interval: 403.0 ± 37.4 s
  n. of intromissions: 15.8 ± 1.3
  n. of mounts: 3.4 ± 0.7
Male rats [2]; 0.3 mg/kg i.p.
  Ejaculation latency: 228.3 ± 53.3 s
  Intromission latency: 7.0 ± 1.1 s
  Mount latency: 5.3 ± 0.8 s
  Post ejaculatory interval: 455.3 ± 73.4 s
  n. of intromissions: 15.6 ± 1.5
  n. of mounts: 2.3 ± 0.8
Male rats [2]; 3 mg/kg i.p.
  Ejaculation latency: 272.8 ± 41.6 s
  Intromission latency: 8.8 ± 2.0 s
  Mount latency: 6.4 ± 1.5 s
  Post ejaculatory interval: 485.1 ± 67.3 s
  n. of intromissions: 16.8 ± 2.1
  n. of mounts: 4.8 ± 1.2
